Source: patent US10544130B2, “Metallo-beta-lactamase inhibitors” (priority 2015, dated 2020)

Key:
[1] = tested on: Escherichia coli expressing NDM-1 (CLB30005, CLB30016); format: cell-based; settings: with imipenem 1 μg/ml; 95% inhibition of bacterial growth
In short: (§1)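 Growth read by absorbance after 22–24 h at 35 °C in CAMHB, with test compound alone or combined with 1 μg/ml imipenem. Inocula came from overnight 35 °C blood-agar colonies, set to a defined OD600 and diluted 1:100. Value is the inhibitor concentration giving synergy.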

[2] = tested on: Serratia marcescens expressing IMP-1 (CL5741); format: cell-based; settings: with imipenem 1 μg/ml; 95% inhibition of bacterial growth
In short: as §1

[3] = tested on: Pseudomonas aeruginosa PAO1 MB9798 (efflux+, IMP-1); settings: ratio MITC95 PA 9798/MITC95 PA 9799; imipenem at 2 μg/mL
In short: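 Isogenic PAO1 pair (efflux+ MB9798, efflux− MB9799, both IMP-1) tested by microbroth MIC with fixed imipenem and/or ceftazidime, usually at CLSI breakpoint, plus fixed class A/C inhibitor against AmpC. MBL inhibitor titrated; concentration restoring susceptibility recorded and fold difference between strains taken as efflux extent.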

[4] = tested on: Klebsiella pneumoniae expressing VIM-1 (IHMA599644); format: cell-based; settings: with imipenem 1 μg/ml; 95% inhibition of bacterial growth
In short: as §1

Compound	Escherichia coli (NDM-1) MITC95 [1]	Serratia marcescens (IMP-1) MITC95 [2]	Efflux ratio [3]	Klebsiella pneumoniae (VIM-1) MITC95 [4]
NC(=O)c1nc2c(-c3ccc(S(=O)(=O)N[C@@H]4CCNC4)c(S(N)(=O)=O)c3-c3nn[nH]n3)cccc2[nH]1 [Example 271, (R)-4-(4-(N-(pyrrolidin-3-yl)sulfamoyl)-3-sulfamoyl-2-(2H-tetrazol-5-yl)phenyl)-1H-benzo[d]imidazole-2-carboxamide]	1.563 µM	0.7813 µM	0.50	
NCc1nc2cc(-c3ccc(S(=O)(=O)N[C@@H]4CCNC4)c(S(N)(=O)=O)c3-c3nn[nH]n3)ccc2s1 [Example 275, (R)-4-(2-(aminomethyl)benzo[d]thiazol-5-yl)-N^1-(pyrrolidin-3-yl)-3-(2H-tetrazol-5-yl)benzene-1,2-disulfonamide]	0.7813 µM	0.7813 µM	1.00	
CNc1nc2c(-c3ccc(S(=O)(=O)N[C@@H]4CCNC4)c(S(N)(=O)=O)c3-c3nn[nH]n3)cccc2[nH]1 [Example 280, (R)-4-(2-(methylamino)-1H-benzo[d]imidazol-4-yl)-N1-(pyrrolidin-3-yl)-3-(2H-tetrazol-5-yl)benzene-1,2-disulfonamide]	0.7813 µM	0.7813 µM	0.50	
NS(=O)(=O)c1c(S(=O)(=O)N[C@@H]2CCNC2)ccc(-c2cnc3cc[nH]c3c2)c1-c1nn[nH]n1 [Example 282, (R)-N1-(pyrrolidin-3-yl)-4-(1H-pyrrolo[3,2-b]pyridin-6-yl)-3-(2H-tetrazol-5-yl)benzene-1,2-disulfonamide]	0.7813 µM	0.7813 µM	1.00	
NS(=O)(=O)c1c(S(=O)(=O)N[C@@H]2CCNC2)ccc(-c2cccc3ncccc23)c1-c1nn[nH]n1 [Example 287, (R)-N1-(pyrrolidin-3-yl)-4-(quinolin-5-yl)-3-(2H-tetrazol-5-yl)benzene-1,2-disulfonamide]	1.563 µM	1.563 µM	1.00	
CNc1nc2c(-c3ccc(S(=O)(=O)N[C@H]4CCNC4)c(S(N)(=O)=O)c3-c3nn[nH]n3)cccc2[nH]1 [Example 295, (S)-4-(2-(methylamino)-1H-benzo[d]imidazol-4-yl)-N1-(pyrrolidin-3-yl)-3-(2H-tetrazol-5-yl)benzene-1,2-disulfonamide]	0.7813 µM	0.7813 µM	1.00	
Cn1c(N)nc2c(-c3ccc(S(=O)(=O)NC[C@H](O)CN)c(S(N)(=O)=O)c3-c3nn[nH]n3)cccc21 [Example 302, (R)-4-(2-amino-1-methyl-1H-benzo[d]imidazol-4-yl)-N1-(3-amino-2-hydroxypropyl)-3-(2H-tetrazol-5-yl)benzene-1,2-disulfonamide]	0.7813 µM	0.7813 µM	1.00	
NC[C@H](O)CNS(=O)(=O)c1ccc(-c2cccc3[nH]c(N)nc23)c(-c2nn[nH]n2)c1S(N)(=O)=O [Example 304, (S)-4-(2-amino-1H-benzo[d]imidazol-4-yl)-N1-(3-amino-2-hydroxypropyl)-3-(2H-tetrazol-5-yl)-benzene-1,2-disulfonamide]	0.3906 µM	0.7813 µM	0.50	
NCc1nc2c(-c3ccc(S(=O)(=O)NC[C@@H](O)CN)c(S(N)(=O)=O)c3-c3nn[nH]n3)cccc2s1 [Example 306, (S)—N1-(3-amino-2-hydroxypropyl)-4-(2-(aminomethyl)benzo[d]thiazol-4-yl)-(2H-tetrazol-5-yl)benzene-1,2-disulfonamide]	0.7813 µM	0.7813 µM	1.00	
Nc1nc2c(-c3ccc(S(=O)(=O)NC[C@@H]4CNCCN4)c(S(N)(=O)=O)c3-c3nn[nH]n3)cccc2[nH]1 [Example 310, (S)-4-(2-amino-1H-benzo[d]imidazol-4-yl)-N1-(piperazin-2-ylmethyl)-3-(2H-tetrazol-5-yl)benzene-1,2-disulfonamide]	0.7813 µM	0.7813 µM	1.00	
N[C@H]1CNC[C@H]1NS(=O)(=O)c1ccc(-c2cnc3cc[nH]c3c2)c(-c2nn[nH]n2)c1S(N)(=O)=O [Example 320]	0.7813 µM	0.7813 µM	2.00	
Nc1ncc(-c2ccc(S(=O)(=O)N[C@@H]3CNC[C@@H]3N)c(S(N)(=O)=O)c2-c2nn[nH]n2)s1 [Example 321, N^1-((3R,4S)-4-aminopyrrolidin-3-yl)-4-(2-aminothiazol-5-yl)-3-(2H-tetrazol-5-yl)benzene-1,2-disulfonamide]	0.7813 µM	1.563 µM	2.00	
Nc1ncc(-c2ccc(S(=O)(=O)N[C@H]3CNC[C@H]3N)c(S(N)(=O)=O)c2-c2nn[nH]n2)s1 [Example 325, N1-((3S,4R)-4-aminopyrrolidin-3-yl)-4-(2-aminothiazol-5-yl)-3-(2H-tetrazol-5-yl)benzene-1,2-disulfonamide]	0.7813 µM	1.563 µM	2.00	
NCCCNC(=O)c1cccc(-c2ccc(S(=O)(=O)NCCN)c(S(N)(=O)=O)c2-c2nn[nH]n2)c1 [Example 341, 4′-(N-(2-aminoethyl)sulfamoyl)-N-(3-aminopropyl)-3′-sulfamoyl-2′-(2H-tetrazol-5-yl)-[1,1′-biphenyl]-3-carboxamide]	0.7813 µM	1.563 µM	2.00	
NCCNS(=O)(=O)c1ccc(-c2cccc(SCC(N)CO)c2)c(-c2nn[nH]n2)c1S(N)(=O)=O (stereo not drawn) [Example 354, 3′-((2-amino-3-hydroxypropyl)thio)-N4-(2-aminoethyl)-2-(2H-tetrazol-5-yl)-[1,1′-biphenyl]-3,4-disulfonamide]	0.3906 µM	1.563 µM	4.00	
NC[C@H](CO)NS(=O)(=O)c1ccc(-c2cccc(N)n2)c(-c2nn[nH]n2)c1S(N)(=O)=O [Example 364, (R)—N^1-(1-amino-3-hydroxypropan-2-yl)-4-(6-aminopyridin-2-yl)-3-(2H-tetrazol-5-yl)benzene-1,2-disulfonamide]	3.125 µM	3.125 µM	2.00	
Nc1nc2c(-c3ccc(S(=O)(=O)NC[C@]4(N)CCNC4)c(S(N)(=O)=O)c3-c3nn[nH]n3)cccc2s1 [Example 366, (S)-4-(2-aminobenzo[d]thiazol-4-yl)-N^1-((3-aminopyrrolidin-3-yl)methyl)-3-(2H-tetrazol-5-yl)benzene-1,2-disulfonamide]	0.7813 µM	1.563 µM	1.00	
NC[C@H](N)CNS(=O)(=O)c1ccc(-c2cnc(N)s2)c(-c2nn[nH]n2)c1S(N)(=O)=O [Example 372, (S)-4-(2-aminothiazol-5-yl)-N1-(2,3-diaminopropyl)-3-(2H-tetrazol-5-yl)benzene-1,2-disulfonamide]	1.563 µM	1.563 µM	2.00	
NC[C@@H](N)CNS(=O)(=O)c1ccc(-c2cnc(N)s2)c(-c2nn[nH]n2)c1S(N)(=O)=O [Example 377, (R)-4-(2-aminothiazol-5-yl)-N1-(2,3-diaminopropyl)-3-(2H-tetrazol-5-yl)benzene-1,2-disulfonamide]	0.7813 µM	1.563 µM	2.00	
NCc1nc2c(-c3ccc(S(=O)(=O)N[C@@H](CN)CO)c(S(N)(=O)=O)c3-c3nn[nH]n3)cccc2s1 [Example 381, (S)—N1-(1-amino-3-hydroxypropan-2-yl)-4-(2-(aminomethyl)benzo[d]thiazol-4-yl)-3-(2H-tetrazol-5-yl)benzene-1,2-disulfonamide]	0.7813 µM	1.172 µM	1.50	
NCc1nc2c(-c3ccc(S(=O)(=O)NC(CN)CN)c(S(N)(=O)=O)c3-c3nn[nH]n3)cccc2[nH]1 [Example 385, 4-(2-(Aminomethyl)-1H-benzo[d]imidazol-4-yl)-N1-(1,3-diaminopropan-2-yl)-3-(2H-tetrazol-5-yl)benzene-1,2-disulfonamide]	0.7813 µM	0.7813 µM	1.00	
NCCNS(=O)(=O)c1ccc(-c2ccnc(N)c2)c(-c2nn[nH]n2)c1S(N)(=O)=O [Example 400, N^1-(2-aminoethyl)-4-(2-aminopyridin-4-yl)-3-(2H-tetrazol-5-yl)benzene-1,2-disulfonamide]				1.563 µM
NCC(CN)NS(=O)(=O)c1ccc(-c2ccc(N)nc2)c(-c2nn[nH]n2)c1S(N)(=O)=O [Example 404, 4-(6-aminopyridin-3-yl)-N^1-(1,3-diaminopropan-2-yl)-3-(2H-tetrazol-5-yl)benzene-1,2-disulfonamide]				1.172 µM
NCC(CN)NS(=O)(=O)c1ccc(-c2ccnc(N)c2)c(-c2nn[nH]n2)c1S(N)(=O)=O [Example 405, 4-(2-aminopyridin-4-yl)-N^1-(1,3-diaminopropan-2-yl)-3-(2H-tetrazol-5-yl)benzene-1,2-disulfonamide]				25 µM
